PubChem BioAssay AID624254 (Broad Institute, 2012)
Activity calls are given as the source filed them. No rule for the calls is given here.

experiment: Luciferase light induction in v cholerae bh1651, agonist dose response, confirmatory (AID 624254); settings: V. cholerae BH1651 luxOD47E, luciferase light induction, 6 h; at 50 µM (top of the series)

Question: For `COCCn1nnnc1CN1CCC(NC(=O)Nc2cccc(OC)c2)CC1`, which “activation (light increase)” value is on record?
Answer: inactive

Question: For `COC(=O)c1cc(NC(=O)C2CC=CCC2C(=O)O)cc(C(=O)OC)c1` (stereo unspecified), which “activation (light increase)” value is on record?
Answer: inactive

Question: Which “activation (light increase)” value does the source give for `Cc1ccc(Oc2nccc(-c3ccc(Cl)cc3)n2)cc1` here?
Answer: inactive

Question: Which “activation (light increase)” value does the source give for `O=C(c1cc2ccccc2cc1O)N1CCN(c2ccccc2O)CC1` here?
Answer: inactive

Question: With `CCc1sc(N(C(=O)Cc2ccccc2)c2ccc(F)cc2)nc1-c1ccccc1` as the compound, how does the “activation (light increase)” value read?
Answer: inactive

Question: Which “activation (light increase)” value does the source give for `CCn1nnnc1NCc1ccc(N2CCCC2)cc1` here?
Answer: inactive

Question: With `O=C(COC(=O)C1CCN(c2ccc(C(F)(F)F)cn2)CC1)NC1CCCCC1` as the compound, how does the “activation (light increase)” value read?
Answer: inactive

Question: Which “activation (light increase)” value does the source give for `COc1ccc(-c2nnc3c4ccccc4c(C)nn23)cc1` here?
Answer: inactive

Question: With `COc1ccc(C(=O)NC2CCSC2=O)cc1` (stereo unspecified) as the compound, how does the “activation (light increase)” value read?
Answer: inactive

Question: Which “activation (light increase)” value does the source give for `O=c1oc2c(CN3CCOCC3)c(O)c(Cl)cc2c2c1CCC2` here?
Answer: inactive

Question: With `Cc1cc(C)n2cc(COc3ccc4ccccc4c3)nc2n1` as the compound, how does the “activation (light increase)” value read?
Answer: inactive

Question: With `COc1ccc(Cc2nnc(NC(=O)C3CC(=O)N(c4ccccc4C)C3)s2)cc1OC` (stereo unspecified) as the compound, how does the “activation (light increase)” value read?
Answer: inactive

Question: With `COCCSc1ccccc1C(=O)Nc1nnc(COC)s1` as the compound, how does the “activation (light increase)” value read?
Answer: inactive

Question: With `CCOc1ccccc1N(CC(=O)Nc1ccc2c(c1)OCCO2)S(C)(=O)=O` as the compound, how does the “activation (light increase)” value read?
Answer: inactive

Question: Which “activation (light increase)” value does the source give for `CC(=O)Nc1ccc(Nc2nc(C)nc3c2oc2ccccc23)cc1` here?
Answer: inactive

Question: Which “activation (light increase)” value does the source give for `NS(=O)(=O)c1cc(C(=O)OCC(=O)NC2CCCCCCC2)ccc1Cl` here?
Answer: inactive

Question: For `Cc1ccccc1-n1nnnc1-c1ccccc1`, which “activation (light increase)” value is on record?
Answer: inactive

Question: Which “activation (light increase)” value does the source give for `CCOc1ccc(CNc2nnnn2C)cc1` here?
Answer: inactive

Question: Which “activation (light increase)” value does the source give for `O=C(Oc1ccc2ccc(OC(=O)N3CCOCC3)cc2c1)N1CCOCC1` here?
Answer: inactive

Question: With `O=c1ncn(-c2cccc(Cl)c2)c2ccccc12` as the compound, how does the “activation (light increase)” value read?
Answer: inactive

Question: For `CN(CC(=O)Nc1ccc(F)c(F)c1F)C(=O)C1CCC1`, which “activation (light increase)” value is on record?
Answer: inactive

Question: With `O=C(COC(=O)/C=C/c1ccc(OC(F)F)cc1)NC1CCCCCC1` as the compound, how does the “activation (light increase)” value read?
Answer: inactive

Question: With `Cc1ccccc1C(=O)Nc1ccc(-c2nc3ccc(C(=O)c4ccccc4)cc3[nH]2)cc1` as the compound, how does the “activation (light increase)” value read?
Answer: inactive

Question: With `Cc1cnc(C(=O)OCC(=O)NC(=O)NC(C)C)cn1` as the compound, how does the “activation (light increase)” value read?
Answer: inactive

Question: Which “activation (light increase)” value does the source give for `Cc1ccccc1NC(=O)Cc1nc(COC(=O)c2ccccn2)cs1` here?
Answer: inactive

Question: Which “activation (light increase)” value does the source give for `CCc1ccc(C(=O)Nc2ccc(Br)cn2)cc1` here?
Answer: inactive

Question: Which “activation (light increase)” value does the source give for `CN(c1ccccc1)S(=O)(=O)c1nnc(NC(=O)C2CCCCC2)s1` here?
Answer: inactive

Question: With `FC(F)(F)c1nnc2sc(-c3cccs3)nn12` as the compound, how does the “activation (light increase)” value read?
Answer: inactive

Question: Which “activation (light increase)” value does the source give for `O=C(COC(=O)[C@H](Cc1c[nH]c2ccccc12)NC(=O)c1ccc(Cl)cc1)Nc1ccc2c(c1)OCO2` here?
Answer: inactive

Question: With `O=C(CC1NC(=O)NC1=O)Nc1ccc(Cl)cc1` (stereo unspecified) as the compound, how does the “activation (light increase)” value read?
Answer: inactive

Question: Which “activation (light increase)” value does the source give for `Cc1ccccc1-n1ccnc1SCC(=O)NCC1CCCO1` (stereo unspecified) here?
Answer: inactive

Question: Which “activation (light increase)” value does the source give for `Cc1noc(C)c1NC(=O)Nc1cccc2c1O[C@H](CN(C)S(=O)(=O)c1cccs1)[C@@H](C)CN([C@H](C)CO)C2=O` here?
Answer: inactive

Question: Which “activation (light increase)” value does the source give for `Cc1ccc(OCCNC(=O)c2ccco2)cc1C` here?
Answer: inactive

Question: For `COC(=O)c1ccc(-c2nc3cc(Cl)c(N)cc3s2)cc1`, which “activation (light increase)” value is on record?
Answer: inactive

Question: Which “activation (light increase)” value does the source give for `CN(CC(=O)Nc1ccccc1Cl)C(=O)c1cccc(-n2cccc2)c1` here?
Answer: inactive

Question: With `COc1ccc2[nH]c(=O)c(CN(C(=O)c3cccnc3)c3ccc(C)cc3)cc2c1` as the compound, how does the “activation (light increase)” value read?
Answer: inactive

Question: Which “activation (light increase)” value does the source give for `CCc1cccc(C)c1N(C(=O)Cn1c(CO)nc2ccccc21)C(C)COC` (stereo unspecified) here?
Answer: inactive

Question: With `Cc1ccc(NS(=O)(=O)c2cn(C)cn2)cc1` as the compound, how does the “activation (light increase)” value read?
Answer: inactive

Question: With `O=C(NCc1ccccc1F)C(=O)NCC1CCCN1S(=O)(=O)c1ccccc1` (stereo unspecified) as the compound, how does the “activation (light increase)” value read?
Answer: inactive

Question: For `Cc1ccc(C(=O)N(C)CC(=O)Nc2ccc(N3CCOCC3)cc2)s1`, which “activation (light increase)” value is on record?
Answer: inactive

Question: For `CCn1c(CC(=O)Nc2cccc(Cl)c2Cl)nnc1SCCOc1ccc(OC)cc1`, which “activation (light increase)” value is on record?
Answer: inactive

Question: For `COc1cc(SC)ccc1C(=O)OCC(=O)NCC(C)C`, which “activation (light increase)” value is on record?
Answer: inactive

Question: With `Cn1cnc(S(=O)(=O)Nc2ccccc2F)c1` as the compound, how does the “activation (light increase)” value read?
Answer: inactive

Question: Which “activation (light increase)” value does the source give for `CCCCNC(=O)Nc1cc(C)on1` here?
Answer: inactive

Question: Which “activation (light increase)” value does the source give for `Cc1noc(C)c1NC(=O)Nc1cccc2c1O[C@H](CN(C)S(=O)(=O)c1cccs1)[C@@H](C)CN([C@@H](C)CO)C2=O` here?
Answer: inactive

Question: Which “activation (light increase)” value does the source give for `N#CCSc1ccccc1NC(=O)COC(=O)CCNC(=O)c1ccc([N+](=O)[O-])cc1` here?
Answer: inactive

Question: For `CCN(CC)S(=O)(=O)c1cccc(C(=O)OCC(=O)C23CC4CC(CC(C4)C2)C3)c1`, which “activation (light increase)” value is on record?
Answer: inactive

Question: Which “activation (light increase)” value does the source give for `CC(=O)c1cc2c(cc1NC(=O)Cc1c(C)noc1C)OCO2` here?
Answer: inactive

Question: For `CC(C)CC(=O)N1CCN(Cc2ccccc2Br)CC1`, which “activation (light increase)” value is on record?
Answer: inactive

Question: With `CCn1c(SCC(=O)OC2CCCCC2)nnc1-c1ccncc1` as the compound, how does the “activation (light increase)” value read?
Answer: inactive

Question: For `Cc1cccc(N2CCN(C(=O)Cn3cccc3C(=O)c3ccccc3)CC2)c1C`, which “activation (light increase)” value is on record?
Answer: inactive

Question: Which “activation (light increase)” value does the source give for `CCc1ccc(-c2ccc(C(=O)O)n2CC)cc1` here?
Answer: inactive

Question: With `O=Cc1cc(OCc2ccccc2)ccc1B(O)O` as the compound, how does the “activation (light increase)” value read?
Answer: inactive

Question: For `CCN(CC1COc2ccccc2O1)C(=S)Nc1ccccc1` (stereo unspecified), which “activation (light increase)” value is on record?
Answer: inactive

Question: With `COc1ccccc1NC(=O)Cc1ccc(-c2ccccc2)cc1` as the compound, how does the “activation (light increase)” value read?
Answer: inactive

Question: Which “activation (light increase)” value does the source give for `CCOC(=O)c1cnc(SCC(=O)OCC(=O)NC2CCS(=O)(=O)C2)nc1N` (stereo unspecified) here?
Answer: inactive

Question: With `Cc1ccc(OCCNC(=O)c2ccc(C)o2)cc1` as the compound, how does the “activation (light increase)” value read?
Answer: inactive

Question: With `CC(C)CC(=O)Nc1ccccc1N1CCN(C(=O)c2ccccc2)CC1` as the compound, how does the “activation (light increase)” value read?
Answer: inactive

Question: With `CC(C)OC(=O)CSc1nnc(SCc2cccc3ccccc23)s1` as the compound, how does the “activation (light increase)” value read?
Answer: inactive

Question: For `Cc1cccc(N2CCN(C(=O)C34CC5CC(CC(C5)C3)C4)CC2)c1C`, which “activation (light increase)” value is on record?
Answer: inactive

Question: Which “activation (light increase)” value does the source give for `O=C(c1cc(-c2ccc3c(c2)OCO3)on1)N1CCN(c2ccc(F)cc2)CC1` here?
Answer: inactive

Question: For `Cn1cnc(S(=O)(=O)Nc2ccccc2)c1`, which “activation (light increase)” value is on record?
Answer: inactive

Question: For `CN(C)S(=O)(=O)c1cccc(NC(=O)COC(=O)c2ccc(Br)o2)c1`, which “activation (light increase)” value is on record?
Answer: inactive

Question: With `CCCn1nnnc1NCc1ccc(N(C)C)cc1` as the compound, how does the “activation (light increase)” value read?
Answer: inactive

Question: With `Cn1c(CCNC(=O)c2ccco2)nc2cc(NC(=O)NC3CCCCC3)ccc21` as the compound, how does the “activation (light increase)” value read?
Answer: inactive

Question: With `COC(=O)c1cnn(-c2nc(-c3ccccc3)cs2)c1N` as the compound, how does the “activation (light increase)” value read?
Answer: inactive

Question: With `CCOC(=O)C1CCN(C(=O)Nc2ccc3c(c2)nc(C)n3C)CC1` as the compound, how does the “activation (light increase)” value read?
Answer: inactive

Question: With `Cc1ccc(-c2cc(C(=O)N3N=C(C(F)F)CC3(O)C(F)F)c3ccccc3n2)cc1C` (stereo unspecified) as the compound, how does the “activation (light increase)” value read?
Answer: inactive

Question: Which “activation (light increase)” value does the source give for `Cc1ccc(C(=O)COc2cc(C)nc3nncn23)cc1` here?
Answer: inactive

Question: For `O=C(O)C1C2CCC(C2)C1C(=O)Nc1cc(F)ccc1F` (stereo unspecified), which “activation (light increase)” value is on record?
Answer: inactive

Question: Which “activation (light increase)” value does the source give for `O=S(=O)(Nc1ccc(-c2csc(-c3ccccc3)n2)cc1)c1ccc(F)cc1` here?
Answer: inactive
